Assay results reported in patent US11427549B2, “Pyrimidinyloxy benzo-fused compounds as herbicides” (FMC Corporation, priority 2017, dated 2022).

Experiments:
[1] = tested on: ryegrass, Italian (Italian ryegrass, Lolium multiflorum); assay: Test A postemergence, ryegrass, Italian; format: in vivo; settings: Lolium multiflorum, post-emergence, 240 h, 0 to 100 scale (0 no effect, 100 complete control), read-out: Plant response rating, Ryegrass, Italian
[2] = tested on: galium (catchweed bedstraw, Galium aparine); assay: Test A postemergence, galium; format: in vivo; settings: Galium, post-emergence, 240 h, 0 to 100 scale (0 no effect, 100 complete control), read-out: Plant response rating, Galium
corn (Zea mays) = assay: Test A postemergence, corn; format: in vivo; settings: Zea mays, post-emergence, 240 h, 0 to 100 scale (0 no effect, 100 complete control)
kochia (Kochia scoparia) [3] = assay: Test A postemergence, kochia; format: in vivo; settings: Bassia scoparia, post-emergence, 240 h, 0 to 100 scale (0 no effect, 100 complete control), read-out: Plant response rating, Kochia
kochia (Kochia scoparia) [4] = assay: Test A preemergence, kochia; format: in vivo; settings: Bassia scoparia, pre-emergence, 240 h, 0 to 100 scale (0 no effect, 100 complete control), read-out: Plant response rating, Kochia
[5] = tested on: ragweed (common ragweed, Ambrosia elatior); assay: Test A preemergence, ragweed; format: in vivo; settings: Ambrosia artemisiifolia, pre-emergence, 240 h, 0 to 100 scale (0 no effect, 100 complete control), read-out: Plant response rating, Ragweed
[6] = tested on: barnyardgrass (Echinochloa crus-galli); assay: Test A postemergence, barnyardgrass; format: in vivo; settings: Echinochloa crus-galli, post-emergence, 240 h, 0 to 100 scale (0 no effect, 100 complete control), read-out: Plant response rating, Barnyardgrass
[7] = tested on: pigweed (Amaranthus retroflexus); assay: Test A preemergence, pigweed; format: in vivo; settings: Amaranthus retroflexus, pre-emergence, 240 h, 0 to 100 scale (0 no effect, 100 complete control), read-out: Plant response rating, Pigweed
[8] = tested on: barnyardgrass (Echinochloa crus-galli); assay: Test A preemergence, barnyardgrass; format: in vivo; settings: Echinochloa crus-galli, pre-emergence, 240 h, 0 to 100 scale (0 no effect, 100 complete control), read-out: Plant response rating, Barnyardgrass
[9] = tested on: blackgrass (Alopecurus myosuroides); assay: Test A postemergence, blackgrass; format: in vivo; settings: Alopecurus myosuroides, post-emergence, 240 h, 0 to 100 scale (0 no effect, 100 complete control), read-out: Plant response rating, Blackgrass
rice (Oryza sativa) = assay: Test B flooded paddy test, rice; settings: Oryza sativa, read-out: Plant response rating, Rice (0 to 100 scale, 0 is no effect, 100 is complete control)
[10] = tested on: ryegrass, Italian (Italian ryegrass, Lolium multiflorum); assay: Test A preemergence, ryegrass, Italian; format: in vivo; settings: Lolium multiflorum, pre-emergence, 240 h, 0 to 100 scale (0 no effect, 100 complete control), read-out: Plant response rating, Ryegrass, Italian
[11] = tested on: foxtail, green (green foxtail, Setaria viridis); assay: Test A postemergence, foxtail, green; format: in vivo; settings: Setaria, post-emergence, 240 h, 0 to 100 scale (0 no effect, 100 complete control), read-out: Plant response rating, Foxtail, Green
Description: Seeds of plant species selected from barnyardgrass (Echinochloa crus-galli), kochia (Kochia scoparia), ragweed (common ragweed, Ambrosia elatior), ryegrass, Italian (Italian ryegrass, Lolium multiflorum), foxtail, giant (giant foxtail, Setaria faberii), foxtail, green (green foxtail, Setaria viridis) and pigweed (Amaranthus retroflexus) were planted into a blend of loam soil and sand and treated preemergence with a directed soil spray using test chemicals formulated in a non-phytotoxic solvent mixture which included a surfactant.
At the same time, plants selected from these weed species and also wheat (Triticum aestivum), corn (Zea mays), blackgrass (Alopecurus myosuroides), and galium (catchweed bedstraw, Galium aparine) were planted in pots containing the same blend of loam soil and sand and treated with postemergence applications of test chemicals formulated in the same manner. Plants ranged in height from 2 to 10 cm and were in the one- to two-leaf stage for the postemergence treatment. Treated plants and untreated controls were maintained in a greenhouse for approximately 10 days, after which time all treated plants were compared to untreated controls and visually evaluated for injury. […] A dash (-) response means no test result.

[12] = tested on: wheat (Triticum aestivum); assay: Test A postemergence, wheat; format: in vivo; settings: Triticum aestivum, post-emergence, 240 h, 0 to 100 scale (0 no effect, 100 complete control), read-out: Plant response rating, Wheat
[13] = tested on: barnyardgrass (Echinochloa crus-galli); assay: Test B flooded paddy test, barnyardgrass; settings: Echinochloa crus-galli, read-out: Plant response rating, Barnyardgrass (0 to 100 scale, 0 is no effect, 100 is complete control)
[14] = tested on: ragweed (common ragweed, Ambrosia elatior); assay: Test A postemergence, ragweed; format: in vivo; settings: Ambrosia artemisiifolia, post-emergence, 240 h, 0 to 100 scale (0 no effect, 100 complete control), read-out: Plant response rating, Ragweed
[15] = tested on: ducksalad (Heteranthera limosa); assay: Test B flooded paddy test, ducksalad; settings: Heteranthera limosa, read-out: Plant response rating, Ducksalad (0 to 100 scale, 0 is no effect, 100 is complete control)
[16] = tested on: pigweed (Amaranthus retroflexus); assay: Test A postemergence, pigweed; format: in vivo; settings: Amaranthus retroflexus, post-emergence, 240 h, 0 to 100 scale (0 no effect, 100 complete control), read-out: Plant response rating, Pigweed

Compound: O=C1OC(CCCC(F)(F)F)c2c(Oc3ncc(Cl)cn3)cccc21 (stereo not drawn) [Compound 1, 4-[(5-Chloro-2-pyrimidinyl)oxy]-3-(4,4,4-trifluorobutyl)-1(3H)-isobenzofuranone]
- pest or weed control at 125 g/ha ([1]; 125 g ai/ha): 50%
- pest or weed control at 500 g/ha ([1]; 500 g ai/ha): 80%
- pest or weed control at 125 g/ha ([2]; 125 g ai/ha): 100%
- pest or weed control at 500 g/ha ([2]; 500 g ai/ha): 100%
- Corn plant response rating (crop injury, 0 = no effect, 100 = complete kill) at 125 g/ha (corn (Zea mays); 125 g ai/ha): 40%
- Corn plant response rating (crop injury, 0 = no effect, 100 = complete kill) at 500 g/ha (corn (Zea mays); 500 g ai/ha): 60%
- pest or weed control at 125 g/ha (kochia (Kochia scoparia) [3]; 125 g ai/ha): 100%
- pest or weed control at 500 g/ha (kochia (Kochia scoparia) [3]; 500 g ai/ha): 100%
- pest or weed control at 125 g/ha (kochia (Kochia scoparia) [4]; 125 g ai/ha): 100%
- pest or weed control at 500 g/ha (kochia (Kochia scoparia) [4]; 500 g ai/ha): 100%
- pest or weed control at 125 g/ha ([5]; 125 g ai/ha): 80%
- pest or weed control at 500 g/ha ([5]; 500 g ai/ha): 90%
- pest or weed control at 125 g/ha ([6]; 125 g ai/ha): 70%
- pest or weed control at 500 g/ha ([6]; 500 g ai/ha): 80%
- pest or weed control at 125 g/ha ([7]; 125 g ai/ha): 100%
- pest or weed control at 500 g/ha ([7]; 500 g ai/ha): 100%
- pest or weed control at 125 g/ha ([8]; 125 g ai/ha): 100%
- pest or weed control at 500 g/ha ([8]; 500 g ai/ha): 100%
- pest or weed control at 125 g/ha ([9]; 125 g ai/ha): 40%
- pest or weed control at 500 g/ha ([9]; 500 g ai/ha): 100%
- plant injury at 250 g/ha (rice (Oryza sativa)): 0%
- pest or weed control at 125 g/ha ([10]; 125 g ai/ha): 80%
- pest or weed control at 500 g/ha ([10]; 500 g ai/ha): 100%
- pest or weed control at 125 g/ha ([11]; 125 g ai/ha): 90%
- pest or weed control at 500 g/ha ([11]; 500 g ai/ha): 100%
- plant injury at 125 g/ha ([12]; 125 g ai/ha): 30%
- plant injury at 500 g/ha ([12]; 500 g ai/ha): 80%
- pest or weed control at 250 g/ha [13]: 0%
- pest or weed control at 125 g/ha ([14]; 125 g ai/ha): 10%
- pest or weed control at 500 g/ha ([14]; 500 g ai/ha): 40%
- pest or weed control at 250 g/ha [15]: 20%
- pest or weed control at 125 g/ha ([16]; 125 g ai/ha): 100%
- pest or weed control at 500 g/ha ([16]; 500 g ai/ha): 100%
